How the values were obtained:
[1] = system: Jurkat cell adherence to FN; assay: Jurkat cell adherence to fibronectin (calcein-AM fluorescence); format: cell-based; conditions: for reversal of the inhibitory effect of lovastatin on PMA-stimulated Jurkat cell adhesion: co-incubated with lovastatin 2.5 days
Protocol: (§1) Briefly, Jurkat and U937 cells (American Type Culture Collection; Manassas Va.) were maintained in Earles Modified Eagles Medium (EMEM; M. A. Bioproducts, Walkersville, Md.) supplemented with 10% fetal bovine serum (FBS; Hyclone Laboratories Inc.; Logan Utah), 5 mM glutamine (Life Technologies Inc.; Gaithersburg Md.), 5 mM sodium pyruvate (Life Technologies), and […] (Life Technologies). Lovastatin (Calbiochem; San Diego Calif.) was converted to open acid form before use. […] The solution was heated to 50° C. for two hours. To this heated solution, 4.5 ml of an aqueous solution containing 81 mM NaH2PO4 and […] was added. The solution was heated to 40° C. for 30 min and the pH was adjusted to 7.3 with concentrated HCl. The final concentration was determined by UV spectroscopy (ε231 =21,490 M^−1cm^−1). The stock solution was frozen in small aliquots.
Cell adhesion of Jurkat cells and U937 cells to fibronectin (FN) or laminin (LN), respectively, was measured. Human FN (1.25 μg/ml)(Collaborative Research Inc.; Bedford Mass.) or human LN (100 μg/ml)(Life Technologies) was coated onto 96-well PRO-BIND assay plate (Falcon; Becton Dickinson; Lincoln Park N.J.) by incubating overnight at 4° C. The plate was then blocked with 3% bovine serum albumin (BSA) in phosphate buffered saline (PBS) at room temperature for one hour. Immediately before use, plates were washed three times with PBS.
(§2) After centrifugation for seven min at 300 xg, cells were resuspended in 1 ml phenol red-free medium and then labeled by incubation with 5 μl of the fluorescent dye calcein-AM (1 mg/ml in DMSO; Molecular Probes; Eugene Oreg.) for 30 min at room temperature in the dark. The cells were then washed twice with phenol red-free medium. After incubation with phorbol 12-myristate 13--acetate (PMA) (100 ng/ml) (Sigma; St. Louis Mo.), which is an activator of protein kinase C (PKC), or MAb 8A2 (2 μg/ml) for 30 min in control medium at room temperature, cells (˜1×10^5/well) were added to triplicate wells. After incubation for 30 min at 37° C., the total cells in the well were analyzed using a fluorescence plate reader (PerSeptive Biosystem; Framingham Mass.). Unbound cells were removed by washing the plate three times with phenol red-free medium, and the plate was then reanalyzed to determine fluorescence of bound cells. After subtraction of background, the percent adherence was calculated as the emission at 530 nm of bound cells divided by the […] of total cells.

RhoA = RhoA immunoblot (electrophoretic mobility as measure of isoprenylation) in Jurkat cells; format: cell-based
Protocol: Cell lysates were subjected to immunoblot analysis to assess RhoA electrophcoretic mobility as a measurement of isoprenylation. For RhoA blots, membranes were sequentially incubated with rabbit anti-RhoA antibody (Santa Cruz Biotechnology, Inc.) in TBST at room temperature for three hours, washed with TBST five times, incubated with goat anti-rabbit IgG (H+L) conjugated with horse radish peroxidase (HRP) (Bio-Rad Laboratories; Hercules Calif.) for one hour, and then washed with TBST five times. RhoA bands were visualized on x-ray film by incubation of membrane with chemiluminescence luminol reagent (Santa Cruz Biotechnology) at room temperature for one minute.

ERK1 = assay: Immunoblot for phosphorylated ERK1 in PMA-treated Jurkat cells; format: cell-based
[2] = system: U937 cell adherence to LN; assay: U937 cell adherence to laminin (calcein-AM fluorescence); format: cell-based
Protocol: as §1
Cell adhesion of Jurkat cells and U937 cells to fibronectin (FN) or laminin (LN), respectively, was measured. Human FN (1.25 μg/ml)(Collaborative Research Inc.; Bedford Mass.) or human LN (100 μg/ml)(Life Technologies) was coated onto 96-well PRO-BIND assay plate (Falcon; Becton Dickinson; Lincoln Park N.J.) by incubating overnight at 4° C. […]
as §2, with “The cells were then washed twice with phenol red-free medium. After incubation with phorbol 12-myristate 13--acetate (PMA) (100 ng/ml) (Sigma; St. Louis Mo.), which is an activator of protein kinase C (PKC), or MAb 8A2 (2 μg/ml) for 30 min in control medium at room temperature, cells (˜1×10^5/well) were added to triplicate wells.” left out

[3] = system: neutrophil (PMN) and mononuclear cell migration into lung; assay: LPS-induced pulmonary inflammation in mice, cell counts in lung lavage fluid; format: in vivo
Protocol: (§3) Pulmonary inflammation was induced in mice using a technique similar to that reported by others (Szarka et al., J. Immunol. Methods 202:49-57 (1997)). Briefly, mice were anesthetized with halothane, then 2.5 μl/g was placed into their nares where it was rapidly taken into the trachea and deep into the lungs. […] Compounds were administered in a given amount per g of mouse body weight. In a second set of experiments, PMA (50 ng/μl final concentration; 5 mg/ml stock solution in dimethyl sulfoxide) was used in place of LPS. Mice were allowed to recover from anesthesia and returned to their cages with free access to food and water.
At either 24 (LPS and PMA) or 48 (LPS) hours, mice were returned to the laboratory and killed, their chest rapidly opened, then both lungs were lavaged with 0.5 ml of normal saline followed by a second lavage of another 0.5 ml of normal saline that was lavaged in and out four times. The lavage fluid was combined, total cell counts determined using a hemocytometer, cytospin preparations were then made, the cells stained using the commercial kit (DiffQuik; Baxter Healthcare Corp.; Miami Fla.), and differential cells counts completed. The total number of mononuclear cells and neutrophils in the lavage fluid was determined by counting 100 cells. The number of neutrophils or macrophages was determined by multiplying the percentages by the total cell count. Differences between groups were tested using the computer program Stat View (Abacus Concepts; Berkeley Calif.) by analysis of variances and post hoc testing using Fisher's protected least square differences. Differences were assumed significant for p<0.05. The lavage fluid remaining after cytospin and cell counts was subjected to centrifugation, and the supernatant collected and frozen at −20° C. for later cytokine analysis. […] Thus, lavage fluid was derived from regions where LPS was deposited as well as those regions receiving no challenge.
The LPS was given at the same time as the last dose of lovastatin by i.n. instillation as described above. […] Mice were returned to their cages with free access to food and water for 24 hours, then returned to the laboratory and killed. Lavage was performed and cell counts completed as described above.

[4] = system: neutrophil (PMN) and mononuclear cell migration into lung; assay: PMA-induced pulmonary inflammation in mice, cell counts in lung lavage fluid; format: in vivo; conditions: i.n. lovastatin 7.0 μg/g with i.n. PMA; 24 hours
Protocol: as §3
At either 24 (LPS and PMA) or 48 (LPS) hours, mice were returned to the laboratory and killed, their chest rapidly opened, then both lungs were lavaged with 0.5 ml of normal saline followed by a second lavage of another 0.5 ml of normal saline that was lavaged in and out four times. The lavage fluid was combined, total cell counts determined using a hemocytometer, cytospin preparations were then made, the cells stained using the commercial kit (DiffQuik; Baxter Healthcare Corp.; Miami Fla.), and differential cells counts completed. The total number of mononuclear cells and neutrophils in the lavage fluid was determined by counting 100 cells. The number of neutrophils or macrophages was determined by multiplying the percentages by the total cell count. […]

KC = KC chemokine ELISA in lung lavage fluid of LPS-challenged mice; format: in vivo, murine
Protocol: (§4) Lavage fluids were used to measure cytokine production. The murine chemoattractant KC is a member of the CXC chemokine family of inflammatory cytokines and was measured by ELISA (R&D Systems; Minneapolis Minn.). The pro-inflammatory cytokine murine TNFα was also measured by ELISA (R&D Systems). The protocol for both assays was similar. Briefly, assay diluent was mixed with sample, which was the lavage fluid obtained as described in Example IV. The diluent was added to the appropriate capture plate and incubated for two hours. Plates were washed, incubated with conjugated anti-KC or anti-TNFα antibody for two hours, washed again, and then incubated with substrate for 30 min. A stop solution was then added, and the optical density determined by plate reader.

TNFα = TNFα ELISA in lung lavage fluid of LPS-challenged mice; format: in vivo, murine
Protocol: as §4

[5] = Mouse hind limb ischemia and reperfusion, leg diameter; format: in vivo; conditions: 7 μg/g i.p. at beginning of 30 min ischemia; 24 hours; t-test
Protocol: Briefly, mice were anesthetized with halothane. A tourniquet was then placed on one hind limb to completely occlude blood flow and kept in place for 30 min. Body temperature was maintained at 37° C. with a heating blanket during the period of ischemia. Perfusion of the hind limb was re-established by removal of the tourniquet, and leg diameter was measured hourly for the next 6 hours and again at 24 hours.

## CC(C)=CCC/C(C)=C/CC/C(C)=C/CO [FOH, trans, trans-farnesol]
[1]
  reversal of the inhibitory effect of lovastatin on PMA-stimulated Jurkat cell adhesion: not

## CC(C)=CCC/C(C)=C/CC/C(C)=C/CC/C(C)=C/CO [GGOH, all trans-geranylgeraniol]
[1]; 10 μM lovastatin (FIG. 3B)
  concentration required to rescue Jurkat cell from the inhibitory effect of lovastatin: 2.5 µM
[1]
  reversal of the inhibitory effect of lovastatin on PMA-stimulated Jurkat cell adhesion: reversed
RhoA; GGOH 5 μM with lovastatin
  RhoA migration on addition with lovastatin: more rapid migration of RhoA as seen in untreated cells

## COc1cccc(-c2cc(=O)c3ccccc3o2)c1N [PD-98059]
[1]; 10 μM, 30 min pre-incubation before PMA
  PMA-stimulated Jurkat cell adherence: did not inhibit
ERK1; Jurkat cells pre-incubated 30 min with MEK-1 inhibitor before PMA
  ERK1 phosphorylation: completely blocked

## CC[C@H](C)C(=O)O[C@H]1C[C@@H](C)C=C2C=C[C@H](C)[C@H](CC[C@@H]3C[C@@H](O)CC(=O)O3)[C@H]21 [lovastatin]
[1]; 8A2 2 μg/ml, 2.5 days pretreatment
  effect on mAb 8A2-stimulated Jurkat cell adherence to FN: no significant effect
[1]; concentration greater than 5 μM, 2.5 days pretreatment
  inhibition of PMA-stimulated Jurkat cell adherence to FN: nearly completely inhibited
[2]; lovastatin pretreatment, 8A2 2 μg/ml
  inhibition of mAb 8A2-stimulated adherence of U937 cells to LN: not
[2]; lovastatin pretreatment, PMA 100 ng/ml
  inhibition of PMA-stimulated adherence of U937 cells to LN: inhibited
[2]; no pretreatment
  effect on stimulated adherence when added at the time of the adhesion assay instead of pretreating: without effect
ERK1; Jurkat cells, lovastatin 2.5 days, concentrations up to 40 μM, PMA 100 ng/ml 30 min
  PMA-stimulated MAPK (ERK1) phosphorylation: does not inhibit
RhoA; 14 μM lovastatin
  isoprenylation state of RhoA: Most RhoA was in non-isoprenylated form
RhoA; Jurkat cells, 2.5 days
  concentration at which geranylgeranylation of RhoA was significantly inhibited: ≥ 0.5 µM
[3]; i.n. lovastatin 0.7 μg/g with i.n. LPS, 24 hours
  percent of PMNs in lavage fluid compared with the control group: 74%
[3]; i.n. lovastatin 0.7 μg/g with i.n. LPS, 48 hours
  percent of PMNs in lavage fluid compared with the control group: 75%
[3]; i.n. lovastatin 1.4 μg/g with i.n. LPS, 24 hours
  percent of PMNs in lavage fluid compared with the control group: 28%
[3]; i.n. lovastatin 1.4 μg/g with i.n. LPS, 48 hours
  percent of PMNs in lavage fluid compared with the control group: 32%
[3]; i.n. lovastatin 7.0 μg/g with i.n. LPS, 24 hours
  percent of PMNs in lavage fluid compared with the control group: 4%
[3]; i.n. lovastatin 7.0 μg/g with i.n. LPS, 48 hours
  percent of PMNs in lavage fluid compared with the control group: 5%
[3]; i.n. lovastatin with i.n. LPS, 24 hours
  total number of lavage mononuclear leukocytes: no effect
[3]; i.n. lovastatin with i.n. LPS, 48 hours, differences not statistically significant
  number of mononuclear leukocytes in lavage fluid: somewhat less
[3]; i.p. lovastatin 7.0 μg/g daily x3, i.n. LPS, 24 hours, p<0.05
  number of PMNs accumulating, percent of control group: 30%
[3]; i.p. lovastatin 7.0 μg/g, i.n. LPS, 24 hours
  number of mononuclear leukocytes in lavage fluid: not different between groups
[4]
  inhibition of PMN emigration: ~100%
  mononuclear cell number, control vs lovastatin treatment: no difference
KC; i.n. lovastatin, 24 hours after LPS, 7.0 μg/g group significantly different from control
  concentration of KC chemokine in the lavage fluid: reduced
KC; i.n. lovastatin, 48 hours after LPS, four groups
  KC concentration in the lavage fluid: not different
KC; i.p. lovastatin pretreatment, 24 hours after i.n. LPS
  KC concentration in the lavage fluid: significant reduction
TNFα; i.n. lovastatin, 24 hours, all doses significant vs control
  TNF concentration in lavage fluid: reduced in a dose-dependent manner
TNFα; i.n. lovastatin, 48 hours
  TNF concentration in lavage fluid, differences from control: not significant
TNFα; i.p. lovastatin, 24 hours after i.n. LPS, statistically significant
  TNF production: effective in preventing TNF production
[5]
  leg diameter after ischemia and reperfusion, vehicle vs lovastatin: significantly larger diameter than the lovastatin treated leg

From patent US20010006656A1, “METHODS AND COMPOSITIONS FOR INHIBITING INFLAMMATION ASSOCIATED WITH PULMONARY DISEASE” (UNIVERSITY OF WASHINGTON, priority 1999, published 2001)
